Reference: patent publication US7375229B2, “Dihydro-dibenzo[B,E]oxepine based selective estrogen receptor modulators, compositions and methods” (Eli Lilly and Company, priority 2002, dated 2008)
pIC50, pKi: −log10 of the molar value.

Legend:
[1] = molecular target: T1, ERAlpha receptor (Homo sapiens, UniProt P03372); assay: Competition binding assay with 3H-Estradiol, ERAlpha receptor; conditions: IC50 converted to Ki using Cheng-Prusoff equation; 3H-Estradiol competition; read-out: ER binding Ki (ERα)
T1 construct: purchased PanVera
T1 sequence (P03372 1-595): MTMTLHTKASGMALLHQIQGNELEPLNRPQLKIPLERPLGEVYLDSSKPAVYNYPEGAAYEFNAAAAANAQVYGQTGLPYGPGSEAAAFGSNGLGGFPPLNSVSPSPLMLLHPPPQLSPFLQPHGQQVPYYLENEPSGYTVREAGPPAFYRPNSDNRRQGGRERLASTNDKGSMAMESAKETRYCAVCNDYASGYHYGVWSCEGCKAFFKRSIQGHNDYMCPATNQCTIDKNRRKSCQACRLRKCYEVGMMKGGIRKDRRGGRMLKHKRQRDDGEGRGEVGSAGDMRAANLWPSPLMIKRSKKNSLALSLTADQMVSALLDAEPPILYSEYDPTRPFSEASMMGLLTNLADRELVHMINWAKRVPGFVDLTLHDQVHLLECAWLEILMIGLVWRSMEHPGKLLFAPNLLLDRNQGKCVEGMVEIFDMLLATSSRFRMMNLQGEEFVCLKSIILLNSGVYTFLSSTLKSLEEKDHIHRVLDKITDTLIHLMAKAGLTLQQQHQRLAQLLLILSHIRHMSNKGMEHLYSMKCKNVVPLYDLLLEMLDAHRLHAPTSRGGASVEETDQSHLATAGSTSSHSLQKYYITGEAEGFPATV
Method: (§1) Competition binding assay is run in a buffer containing 50 mM Hepes, pH 7.5, 1.5 mM EDTA, 150 mM NaCl, 10% glycerol, 1 mg/ml ovalbumin and 5 mM DTT, using 0.025 μCi per well ^3H-Estradiol (NEN #NET517 at 118 Ci/mmol, 1 mCi/ml), 10 ng/well ERAlpha or ERbeta receptor (PanVera). Competing compounds are added at 10 different concentrations. Non-specific binding is determined in the presence of 1 μM of 17-B Estradiol. The binding reaction (140 μl) is incubated for 4 hours at room temperature, then 70 μl of cold DCC buffer is added to each reaction (DCC buffer contains per 50 ml of assay buffer, 0.75 g of charcoal (Sigma) and 0.25 g of dextran (Pharmacia)). Plates are mixed 8 minutes on an orbital shaker at 4° C. Plates are then centrifuged at 3,000 rpm at 4° C. for 10 minutes. An aliquot of 120 μl of the mix is transferred to another 96-well, white flat bottom plate (Costar) and […] of Wallac Optiphase “Hisafe 3” scintillation fluid is added to each well. Plates are sealed and shaken vigorously on an orbital shaker. After an incubation of 2.5 hrs, read plates in a Wallac Microbeta counter. The data is used to calculate an IC50 and % Inhibition at 10 μM. The Kd for ^3H-Estradiol is determined by saturation binding to ER alpha and ER beta receptors. The IC50 values for compounds are converted to Ki using Cheng-Prusoff equation and the Kd determined by saturation binding assay.

[2] = molecular target: T2, ERbeta receptor (Homo sapiens, UniProt Q92731); assay: Competition binding assay with 3H-Estradiol, ERbeta receptor; conditions: IC50 converted to Ki using Cheng-Prusoff equation; 3H-Estradiol competition; read-out: ER binding Ki (ERβ)
T2 construct: purchased PanVera
T2 sequence (Q92731 whole entry): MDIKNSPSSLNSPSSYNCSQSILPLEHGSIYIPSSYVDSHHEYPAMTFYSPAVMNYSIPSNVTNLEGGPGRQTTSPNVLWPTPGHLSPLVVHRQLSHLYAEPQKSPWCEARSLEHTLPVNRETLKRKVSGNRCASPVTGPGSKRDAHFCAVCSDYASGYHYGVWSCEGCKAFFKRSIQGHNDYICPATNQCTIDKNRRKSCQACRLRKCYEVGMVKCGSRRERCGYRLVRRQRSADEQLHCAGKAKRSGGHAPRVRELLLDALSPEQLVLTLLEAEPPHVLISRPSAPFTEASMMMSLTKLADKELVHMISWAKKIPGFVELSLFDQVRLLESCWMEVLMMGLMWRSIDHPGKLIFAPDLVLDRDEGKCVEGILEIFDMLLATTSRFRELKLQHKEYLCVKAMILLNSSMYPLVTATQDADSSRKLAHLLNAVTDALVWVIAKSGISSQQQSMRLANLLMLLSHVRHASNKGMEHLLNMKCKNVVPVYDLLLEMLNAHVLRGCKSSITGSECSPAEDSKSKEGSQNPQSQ
Method: as §1

[3] = tested on: MCF-7 breast adenocarcinoma cells; assay: MCF-7 proliferation assay (14C-thymidine), antagonist mode; format: cell-based; conditions: Homo sapiens, MCF7, with 10 pM E2
Method: MCF-7 breast adenocarcinoma cells (ATCC HTB 22) are maintained in MEM (minimal essential medium, phenol red-free, Gibco BRL) supplemented with 10% fetal bovine serum (FBS) (V/V), L-glutamine (2 mM), sodium pyruvate (1 mM), HEPES ((N-[2-hydroxyethyl]piperazine-N′-[2-ethanesulfonic acid] 10 mM}, non-essential amino acids (0.1 mM) and Penicillin Streptomycin (1×). Seven days prior to assay, MCF-7 cells are switched to assay media which is the same as maintenance medium except supplemented with 10% dextran-coated charcoal-stripped fetal bovine serum (DCC-FBS) assay medium in place of 10% FBS. MCF-7 cells are removed from flasks using 10× Trypsin EDTA (phenol red free, Gibco BRL) and diluted to 1× in (Ca++/Mg++ free HBSS (phenol red-free). Cells are adjusted to 80,000 cells/ml in assay medium. […] For each of the agonist plates, a basal level (media) and a maximum stimulated level (with 1 μM E2) is determined. For each of the antagonist plates, a basal level (media) and a E2 (10 pM) alone control is determined. […] The plates are incubated overnight in the same incubator and then counted on the Wallac Microbeta counter. […] For the agonist mode, an EC50 and percent of maximum E2 stimulation and concentration of maximum stimulation is calculated.

[4] = tested on: Ishikawa human endometrial tumor cells; assay: Ishikawa cell assay (PNPP readout), agonist and antagonist modes; format: cell-based; conditions: for pIC50: Homo sapiens, Ishikawa, antagonist mode, with 1 nM E2; for Ishikawa Agonist % Eff: agonist mode, % efficacy versus the response to Tamoxifen
Excerpt: Ishikawa human endometrial tumor cells are maintained in MEM (minimum essential medium, with Earle's salts and L-Glutamine, Gibco BRL, Gaithersburg, Md.), supplemented with 10% fetal bovine serum (FBS) (V/V), (Gibco BRL). One day prior to assay, growth media is changed to assay medium, DMEM/F-12 (3:1) (Dulbecco's Modified Eagle Medium: Nutrient Mixture F-12, 3:1 Mixture, phenol red-free, Gibco BRL) supplemented with 5% dextran coated charcoal stripped fetal bovine serum (DCC-FBS) (Hyclone, Logen, Utah), L-Glutamine (2 mM), MEM sodium pyruvate (1 mM), HEPES (N-[2-hydroxyethyl]piperazine-N′-[2-ethanesulfonic acid] 2 mM) all from Gibco BRL). After an overnight incubation, ishikawa cells are rinsed with Dulbecco's Phosphate Buffered Saline (1×) (D-PBS) without Ca^+2 and Mg^+2 (Gibco BRL), and trypsinized by a 3 minute incubation with 0.25% Trypsin/EDTA, phenol red-free (Gibco BRL). Cells are resuspended in assay medium and adjusted to 250,000 cells/ml. Approximately 25,000 cells in a 100 ul media are added to flat-bottom 96 wells microculture plates (Costar 3596) and incubated at 37° C. in a 5% CO2 humidified incubator for 24 hours. The next day, serial dilutions of compounds are prepared in assay medium (at 6 times the finial concentration in the assay). The assay is run in dual mode, agonist and antagonist modes. For the agonist mode, plates receive 25 μl/well of assay medium followed by 25 μl/well of diluted compounds (at 6× the final concentrations). For the antagonist mode, plates receive 25 µl/well of 6 nM E2 (β-Estradiol, Sigma, St. Louis, Mo.) followed by 25 μl/well of diluted compounds (at 6× the final concentrations). After an additional 48-hour incubation at 37° C. in a 5% CO2 humidified incubator, media is aspirated from wells and 100 μl fresh assay medium is added to each microculture. Serial dilutions of compounds are prepared and added to the cells as described above. After an additional 72 hour incubation at 37° C. in a 5% CO2 humidified incubator, the assay is quenched by removing media and rinsing plates twice in Dulbecco's Phosphate Buffered Saline (1×) (D-PBS) (Gibco BRL). The plates are dried for 5 min and frozen at −70° C. for at least 1 hour. The plates are then removed from the freezer and allowed to thaw at room temperature. To each well, 100 μl of 1-Step™ PNPP (Pierce Chemical Company, Rockford, Ill.) is added. After a 20-minute incubation, plates are read on a spectophotometer at 405 nm. The data is fitted to a linear interpolation to derive EC50 (for agonist mode) or IC50 (for antagonist mode) values. For the agonist mode, a % efficacy for each compound is calculated versus the response to Tamoxifen. For the antagonist mode, a % efficacy for each compound is calculated versus E2 (1 nM) alone.

Row | Compound | pKi [1] | pKi [2] | pIC50 [3] | pIC50 [4] | Ishikawa Agonist % Eff [4] [%]
1 | Oc1ccc2c3c(sc2c1)Cc1ccccc1OC3c1ccc(OCCN2CCCCC2)cc1 (stereo not shown) [Example 1, 5-[4-(2-Piperidin-1-yl-ethoxy)-phenyl]-5,11-dihydro-6-oxa-12-thia-dibenzo[a,f]azulen-2-ol] | 9.00 | 9.00 | 8.10 | 7.72 | 4
2 | Oc1ccc2c3c(ccc2c1)Cc1ccccc1OC3c1ccc(OCCN2CCCCC2)cc1 (stereo not shown) [Example 2, 13-[4-(2-Piperidin-1-yl-ethoxy)-phenyl]-7,13-dihydro-12-oxa-benzo[4,5]cyclohepta[1,2-a]naphthalen-3-ol] | 8.70 | 8.52 | 8.00 | 6.34 | 24
